Our source for the T/C values is PubChem BioAssay AID192 (DTP/NCI, 2004).

“And” between values parts separate entries of the source, which are not always exact repeats. Identical values can stand only once. Inconclusive results and toxic doses are left out.

This assay relates to BDF1 mice, B16 melanoma ip, median survival T/C. As to the kind of experiment: NCI In Vivo Anticancer Drug Screen. Data for tumor model B16 Melanoma (intraperitoneal) in B6D2F1 (BDF1) mice. The note with it: endpoint: median survival time, schedule: Q01DX009 (ip), higher = longer survival. In short, it runs like this: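 Survival or tumor size is measured after treatment of tumor-bearing mice and normalised to the vehicle-treated control group.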

Setting [1] is: dose: 100.0 mg/kg/injection, vehicle: saline.
The mark [2] stands for this setting: dose: 12.5 mg/kg/injection, vehicle: saline with Tween-80.
[3] abbreviates: dose: 25.0 mg/kg/injection, vehicle: saline with Tween-80.
The mark [4] stands for this setting: dose: 50.0 mg/kg/injection, vehicle: saline with Tween-80.
Setting [5] is: dose: 25.0 mg/kg/injection, vehicle: Klucel (hydroxypropylcellulose) (HPC).
Where [6] appears, read: dose: 50.0 mg/kg/injection, vehicle: Klucel (hydroxypropylcellulose) (HPC).
Where [7] appears, read: dose: 100.0 mg/kg/injection, vehicle: Klucel (hydroxypropylcellulose) (HPC).
[8] abbreviates: dose: 200.0 mg/kg/injection, vehicle: Klucel (hydroxypropylcellulose) (HPC).
Where [9] appears, read: dose: 400.0 mg/kg/injection, vehicle: Klucel (hydroxypropylcellulose) (HPC).

`O=C(O)c1ccc(O)c([N+](=O)[O-])c1`: the T/C under setting [1] is 115 % of control and the T/C (dose: 200.0 mg/kg/injection, vehicle: saline) is 87 % of control.
Turning to `CCCCOC(=O)c1ccc(NC(=O)Nc2ccccc2OC)cc1`, the T/C runs as follows: under setting [2], 93 % of control; under setting [3], 100 % of control; under setting [4], 98 % of control.
With `CCc1ccccc1N1CCN(C(=O)c2cc(OC)c(OC)c(OC)c2)CC1`, the T/C is 88 % of control (dose: 12.5 mg/kg/injection, vehicle: Klucel (hydroxypropylcellulose) (HPC)); 94 % of control under setting [5]; 94 % of control under setting [6].
Regarding `COc1cccc2c1C(=O)c1c(O)c3c(c(O)c1C2=O)CC(O)(C(C)=O)CC3OC1CC([N+](C)(C)C)C(O)C(C)O1` (stereo not given), the T/C is 110 % of control (dose: 1.56 mg/kg/injection, vehicle: water); 107 % of control (dose: 3.13 mg/kg/injection, vehicle: water); 98 % of control (dose: 6.25 mg/kg/injection, vehicle: water); 110 % of control (dose: 12.5 mg/kg/injection, vehicle: water); 106 % of control (dose: 25.0 mg/kg/injection, vehicle: water).
As for `OC1(C#CC2(O)c3ccccc3-c3ccccc32)c2ccccc2-c2ccccc21`, the T/C is, setting by setting: under setting [7], 122 % of control; under setting [8], 97 % of control; under setting [9], 94 % of control.
Consider `COC(=Nc1ccccc1)SSC(C)C`, for which the T/C by setting is: (dose: 6.25 mg/kg/injection, vehicle: saline with Tween-80) 113 % of control; under setting [2], 108 % of control; under setting [3], 102 % of control; under setting [4], 100 % of control; (dose: 100.0 mg/kg/injection, vehicle: saline with Tween-80) 97 % of control.
Take `CCCCCCCCCCCCCCCCS(=O)(=O)c1ccc(NN)cc1`: the T/C is, setting by setting: under setting [6], 97 % of control; under setting [8], 86 % of control and 88 % of control.
Take `COc1cc2c(c(OC)c1OC)-c1ccc(SC)c(=O)cc1[C@@H](NC1OC(CO)C(O)C(O)C1O)CC2` (stereo not given in full): under setting [1], the T/C is 120 % of control.
`[N-]=[N+]=C1C(=O)NN=C1c1ccccc1`: the T/C under setting [7] was 105 % of control.
For `COc1ccc(NC(=O)COc2ccccc2Br)cc1`, the T/C was 103 % of control under setting [7], 100 % of control under setting [8] and 93 % of control under setting [9].
With `CC(=O)C(=O)NC1/C=C(C)\C=C/C(O)C/C=C(C)\C=C/C(O)CC2OC(=O)C1(C)C(=O)C2C` (stereo not given), the T/C is, setting by setting: under setting [5], 100 % of control; under setting [6], 118 % of control; under setting [7], 117 % of control; under setting [8], 112 % of control.
Regarding `COc1ccc(NC(=O)Nc2ccc(C(C)C)cc2)cc1`, the T/C is 94 % of control under setting [7], 94 % of control under setting [8] and 97 % of control under setting [9].
